Measured values published in patent publication US20100297223A1, “PHARMACEUTICAL DOSAGE FORM COMPRISING A LIQUID OR FLOWABLE CORE COMPOSITION” (ABBOTT GMBH & CO. KG, priority 2007, published 2010).

Legend:
[1] = Water activity aw of capsule fill (Pawkit water activity meter); assay type: physicochemical; settings: fill emptied from gelatine capsules size 00, 24 h after capsule preparation
Excerpt: Water activity aw is a measure of unbound free water in a system that is available to support chemical (or biological) reactions. It is defined as the vapour pressure of water divided by that of pure water at the same temperature. When a composition is in moisture equilibrium with its environment, its water activity is quantitatively equal to the relative humidity in head space of a container containing the composition, divided by 100. In particular during prolonged periods of storage, an excess of free water will migrate into the capsule shell and soften and eventually liquefy the capsule material. There are several factors that control water activity in a system. Dissolved species, e.g. salts, or sugars, interact with water through dipole-dipole, ionic, and hydrogen bonds. […] Water activity can be measured with commercially available equipment, such as the Pawkit water activity meter available from Decagon Devices, Inc. For the purposes herein, the water activity aw is suitably measured at a temperature of 25° C. […]
Twenty-four hours after the capsule preparation, the initial values of water activity and mechanical strength of the capsule shell were measured.
Capsules were stored for three months at 25° C., 60% relative humidity and 40° C., 75% relative humidity, respectively. Then, water activity and mechanical strength of the capsule shell were measured. […]

[2] = Miscibility with water; assay type: physicochemical

SMILES: CC(CCN1CCCC1=O)N1CCCC1=O (centres unmarked) [1,3-bis-(pyrrolidon-1-yl)-butane]
- aw (water activity), Initial [1]: 0.12
- Miscibility with water [2]: miscible with water in any ratio
